The target in one assay is T1, HDAC6 (Homo sapiens, UniProt Q9UBN7).
T1 sequence (Q9UBN7 1-1215): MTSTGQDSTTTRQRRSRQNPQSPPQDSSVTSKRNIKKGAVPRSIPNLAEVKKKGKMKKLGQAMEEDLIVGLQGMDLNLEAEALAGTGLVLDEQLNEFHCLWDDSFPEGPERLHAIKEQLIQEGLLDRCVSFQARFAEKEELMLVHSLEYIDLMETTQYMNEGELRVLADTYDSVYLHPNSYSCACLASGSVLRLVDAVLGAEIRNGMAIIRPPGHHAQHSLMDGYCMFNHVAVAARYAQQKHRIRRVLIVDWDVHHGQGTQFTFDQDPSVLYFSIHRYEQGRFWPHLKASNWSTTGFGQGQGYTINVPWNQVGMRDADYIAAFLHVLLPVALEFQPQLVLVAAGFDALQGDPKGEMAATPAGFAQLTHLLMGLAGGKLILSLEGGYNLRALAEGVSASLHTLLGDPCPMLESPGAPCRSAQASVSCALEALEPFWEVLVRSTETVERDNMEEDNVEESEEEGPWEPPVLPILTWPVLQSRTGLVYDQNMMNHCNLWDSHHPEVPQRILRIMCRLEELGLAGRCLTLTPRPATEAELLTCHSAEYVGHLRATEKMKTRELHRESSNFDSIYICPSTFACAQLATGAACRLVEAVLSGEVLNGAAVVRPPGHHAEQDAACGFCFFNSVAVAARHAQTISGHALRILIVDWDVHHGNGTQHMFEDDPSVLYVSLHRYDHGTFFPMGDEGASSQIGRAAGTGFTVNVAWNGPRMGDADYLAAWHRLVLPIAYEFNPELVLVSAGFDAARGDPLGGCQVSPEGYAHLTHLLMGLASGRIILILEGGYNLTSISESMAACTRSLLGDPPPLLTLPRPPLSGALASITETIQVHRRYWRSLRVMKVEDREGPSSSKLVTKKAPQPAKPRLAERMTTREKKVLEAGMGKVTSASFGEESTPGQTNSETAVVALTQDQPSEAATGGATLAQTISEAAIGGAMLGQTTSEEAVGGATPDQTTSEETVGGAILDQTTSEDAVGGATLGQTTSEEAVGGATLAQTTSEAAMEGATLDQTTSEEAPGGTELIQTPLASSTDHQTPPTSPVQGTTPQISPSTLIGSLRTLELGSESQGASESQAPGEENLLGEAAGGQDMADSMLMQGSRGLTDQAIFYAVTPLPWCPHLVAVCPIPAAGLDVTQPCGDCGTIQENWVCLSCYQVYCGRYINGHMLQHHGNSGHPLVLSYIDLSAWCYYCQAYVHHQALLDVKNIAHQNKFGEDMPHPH
As to conditions: prostate cancer cells; cited from earlier work.

A further assay relates to Ku70/FLIP complex. The assay can be described thus: Ku70 immunoprecipitation with FLIP immunoblot in IPF-lung myofibroblasts. The assay is classed as cell-based, human. Conditions: CMH 30 μM, 72 h. The procedure:
Human lung myofibroblasts Differentiated fibroblasts from IPF-lungs and controls from patient lung biopsies performed for tumor diagnosis were obtained under a protocol detailed in Wallach-Dayan et al., J. Autoimmun. 59: 67-76, 2015. LL 97A (AlMy) (ATCC® CCL-191™)-IPF-lung, and LL 24 (ATCC® CCL-151™)-normal lung fibroblast cell lines were used.
(§1) Immunoprecipitation and immunoblotting Standard protocols were performed as described in Golan-Gerstl et al., Am. J. Respir. Cell Mol. Biol. 47: 271-279, 2012.
FLIP downregulation from an OD of 1.85 to 0.49 (about 3.5-fold) was detected in WB (FIG. 4F), and a […] from a mean fluorescence intensity (MFI)=10^3 to only 10^1 was detected with flow cytometry (FIG. 4G). Thus, SIRT1-mediated Ku70-deacetylation stabilizes IPF-lung myofibroblast FLIP via Ku70/FLIP complex. This effect of CMH on Ku70 further disrupts Ku70/FLIP complex and destabilizes FLIP in IPF-lung myofibroblasts.
Background: Immunoblotting shows a protein as a band on a membrane.

The subject of the next assay is Ku70. The assay can be described thus: Ku70-IP and immunoblots of myofibroblasts isolated from lungs of BLM-treated mice given CMH. Type of assay: in vivo, mouse. Conditions: CMH 30 μM OA day 6, sacrifice day 14. The procedure:
Oropharyngeal aspiration (OA) and induction of lung fibrosis in mice Oropharyngeal aspiration of BLM (OA-BLM) was performed as detailed in Golan-Gerstl et al., Am. J. Respir. Cell Mol. Biol. 36: 270-275, 2007. Lung fibrosis was assessed via semi-quantitative morphological index (Wallach-Dayan et al., PNAS USA 104: 20460-20465, 2007). Lung collagen was measured using a Sircol Collagen Assay kit (Biocolor, Belfast, Northern Ireland), and standard protocol of trichrome staining. Isolation of mouse lung myofibroblasts Myofibroblast isolation and culture was performed as described in Golan-Gerstl et al., Am. J. Respir. Cell Mol. Biol. 36: 270-275, 2007; and Wallach-Dayan et al., PNAS USA 104: 20460-20465, 2007.
as §1
CMH (30 μM) or control vehicle 4% DMSO were administered into WT mice by a second OA on day 6 of OA-BLM (0.05 mU), or control-saline (FIG. 6A). Similar to SIRT1^y/y mice, BLM-treated mice and control saline-treated mice (FIG. 6B) that were exposed to CMH vs. vehicle alone, had low SIRT1 and FLIP expression in lung sections. Myofibroblasts isolated from lungs of BLM-treated mice had decreased Ku70 binding to SIRT1 from 1.2 to 0.6 (FIG. 6C), increased Ku70 acetylation from an OD of 0.1 to 0.91 (FIG. 6D), and decreased Ku70/FLIP complex from an OD of 2.43 to 1.55 (FIG. 6E). Compared to vehicle, CMH-treated mice reduced H&E and collagen-trichrome staining (FIG. 6F, upper and lower panels, respectively), SMI grade (average SMI from 2 to 1.1, FIG. 6G), and collagen in Sircol assay (from 200 μg to only 50 μg, FIG. 6H). Thus, In vivo inhibition of SIRT1 activity, FLIP expression, and lung fibrosis were detected in CMH-BLM-treated mice and attenuation of deacetylation activity on Ku70, a decrease in Ku70/FLIP complex, and FLIP expression levels were detected in myofibroblasts isolated from lungs of CMH-BLM-treated mice. […]

SMILES strings stand for the structures.

For the compound `Cc1cc(Cl)ccc1OCCCC(=O)NO` [CMH, 4-(4-chloro-2-methylphenoxy)-N-hydroxybutanamide], the “Inhibition of HDAC6” value on HDAC6 was “Selective inhibition”. Moreover, the “Decrease of Ku70/FLIP complex” value with Ku70/FLIP complex was “about 1.5 fold”. Besides, the “Ku70/FLIP complex in FLIP-IB” value in the assay on Ku70/FLIP complex (from 6.2) is given as 4.1 OD. Also, in the assay with Ku70 (from 0.1), the “Ku70 acetylation OD (Ku70-IP, pan-acetyl IB)” value worked out at 0.91 OD. Also, the “Ku70 binding to SIRT1 (Ku70-IP, SIRT1 IB)” value with Ku70 (from 1.2) stood at 0.6. Besides, in the assay on Ku70 (from 2.43), the “Ku70/FLIP complex OD (Ku70-IP, FLIP IB)” value was determined as 1.55 OD.
